Results taken from US8188135B2, “Compounds as cannabinoid receptor ligands” (priority 2008, dated 2012).

Assays:
Rat CB1 = biological target: T1, Rat CB1 (Rattus norvegicus, UniProt P20272); assay: rat CB1 cyclase functional assay (HitHunter cAMP); format: cell-based; details: Rat CB1 cyclase (EC50, nM), HEK cells, forskolin 37 μM
T1 construct: expressed in transfected cells; host or cells: HEK
Summary of the method: (§1)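 HEK cells expressing rat CB1 or CB2, 10,000 cells/well, incubated 20 min at 37° C with test ligands plus forskolin (37 μM for CB1, 18 μM for CB2) in DPBS with 0.01% BSA. cAMP read by enzyme-complementation luminescence after lysis; EC50 from sigmoidal dose-response fit.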

[1] = pharmacokinetic studies in rats; details: male, Sprague-Dawley, rat, in vivo; for clearance / half-life: iv, 3 micromole/kg; for bioavailability: po, 10 micromole/kg
Protocol: Male Sprague-Dawley rats, weighing 250-400 g, were obtained from Charles Rivers Laboratories. Pharmacokinetic studies were conducted in three groups of rats; each group contained three animals. All groups were dosed with a solution formulation. The first group of three rats received an intravenous dose, administered under isoflurane anesthetic. The second group received an intraperitoneal dose and the third group received an oral dose, administered by gavage. Sequential blood samples were obtained from a tail vein of each animal for 8-24 hours after dosing. Plasma was separated by centrifugation and stored frozen until analysis.
Half life […] and plasma clearance values are based on intravenous administration (3 micromole/kg).
Half life (t1/2) and plasma clearance values are based on intravenous administration (3 micromole/kg).

rat CB2 [2] = biological target: T2, rat CB2 (Rattus norvegicus, UniProt Q9QZN9); assay: rat CB2 radioligand binding assay ([3H]CP 55,940 competition); parameters: expressed in transfected cells; host or cells: HEK293; details: rat CB2 (Ki, nM), HEK293 membranes, 0.5 nM [3H]CP 55,940
T2 sequence (Q9QZN9 1-360): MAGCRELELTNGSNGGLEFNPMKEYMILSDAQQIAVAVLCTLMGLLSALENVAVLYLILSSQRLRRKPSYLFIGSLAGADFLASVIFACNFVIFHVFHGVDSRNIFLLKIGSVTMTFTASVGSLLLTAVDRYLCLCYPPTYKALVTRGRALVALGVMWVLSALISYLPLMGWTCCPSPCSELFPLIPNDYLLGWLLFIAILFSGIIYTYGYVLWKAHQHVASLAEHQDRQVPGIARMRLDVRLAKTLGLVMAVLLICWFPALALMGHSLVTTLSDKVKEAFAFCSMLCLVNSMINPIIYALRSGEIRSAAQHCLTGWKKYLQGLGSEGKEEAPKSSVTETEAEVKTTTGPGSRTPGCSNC
Summary of the method: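 Membranes (20 μg protein/well) from HEK293 cells stably expressing the receptor were incubated 45 min at 30 °C with 0.5 nM [3H]CP 55,940 and five concentrations of test compound (0.01 nM–10 μM) in Tris/EDTA/MgCl2/BSA buffer, pH 7.4. Bound ligand was measured by GF/C filtration and scintillation counting; 10 μM CP 55,940 defined nonspecific binding.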

human CB2 receptors = biological target: T3, human CB2 receptors (Homo sapiens, UniProt P34972); assay: human CB2 radioligand binding assay ([3H]CP 55,940 competition); details: human CB2 (Ki, nM), HEK293 membranes, 0.5 nM [3H]CP 55,940
T3 construct: expressed in transfected cells; host or cells: HEK293
T3 sequence (P34972 whole entry): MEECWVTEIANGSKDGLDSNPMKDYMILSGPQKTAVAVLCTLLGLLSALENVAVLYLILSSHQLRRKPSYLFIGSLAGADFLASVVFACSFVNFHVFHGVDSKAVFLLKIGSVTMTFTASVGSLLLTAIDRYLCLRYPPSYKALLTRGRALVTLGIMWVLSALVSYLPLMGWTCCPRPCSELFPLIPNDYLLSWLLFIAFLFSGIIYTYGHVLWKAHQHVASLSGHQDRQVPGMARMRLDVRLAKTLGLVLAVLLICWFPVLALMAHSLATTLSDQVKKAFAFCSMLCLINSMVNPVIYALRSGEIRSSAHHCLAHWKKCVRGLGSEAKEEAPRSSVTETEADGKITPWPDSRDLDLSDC
Summary of the method: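 Membranes from HEK293 cells stably expressing human CB2 (5 μg protein/well) competed against 0.5 nM [3H]CP 55,940 with five concentrations of test ligand (0.01 nM to 10 μM), pH 7.4 Tris buffer with BSA, 90 min at 30 °C. Filtration and scintillation counting; nonspecific binding with 10 μM unlabeled CP 55,940.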

rat CB2 [3] = biological target: T2, rat CB2; assay: rat CB2 cyclase functional assay (HitHunter cAMP); format: cell-based; parameters: expressed in transfected cells; host or cells: HEK; details: rat CB2 cyclase (EC50, nM), HEK cells, forskolin 18 μM
Summary of the method: as §1

T1 sequence (P20272 whole entry): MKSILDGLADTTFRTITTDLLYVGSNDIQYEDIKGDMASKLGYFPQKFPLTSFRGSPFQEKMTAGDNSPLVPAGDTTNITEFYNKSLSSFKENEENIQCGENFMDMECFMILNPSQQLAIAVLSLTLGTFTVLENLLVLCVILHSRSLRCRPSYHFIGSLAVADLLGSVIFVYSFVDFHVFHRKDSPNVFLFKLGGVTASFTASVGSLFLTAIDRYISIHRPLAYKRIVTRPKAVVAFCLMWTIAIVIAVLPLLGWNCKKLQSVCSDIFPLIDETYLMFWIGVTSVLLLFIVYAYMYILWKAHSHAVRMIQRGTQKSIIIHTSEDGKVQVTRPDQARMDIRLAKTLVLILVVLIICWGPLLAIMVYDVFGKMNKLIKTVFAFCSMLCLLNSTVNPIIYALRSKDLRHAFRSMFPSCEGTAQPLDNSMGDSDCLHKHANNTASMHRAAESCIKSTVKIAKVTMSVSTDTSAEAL

Cn1c(C(C)(C)C)c/c(=N\C(=O)c2cc(C(F)(F)F)ccc2OCCC(C)(C)O)n1CC1CC1 [Example 51, N-[(3E)-5-tert-butyl-2-(cyclopropylmethyl)-1-methyl-1,2-dihydro-3H-pyrazol-3-ylidene]-2-(3-hydroxy-3-methylbutoxy)-5-(trifluoromethyl)benzamide]
EC50 (Rat CB1): > 27000 nM | clearance [1]: 8.33 mL/min/kg | half-life [1]: 3.2 h | bioavailability [1]: 52% | Ki (rat CB2 [2]): 15 nM | Ki (human CB2 receptors): 80 nM | EC50 (rat CB2 [3]): 0.46 nM

Cn1c(C2(C)CC2)c/c(=N\C(=O)c2cc(C(F)(F)F)ccc2OCCC(C)(C)O)n1C[C@H]1CCCO1 [Example 68, 2-(3-hydroxy-3-methylbutoxy)-N-{(3E)-1-methyl-5-(1-methylcyclopropyl)-2-[(2 R)-tetrahydrofuran-2-ylmethyl]-1,2-dihydro-3H-pyrazol-3-ylidene}-5-(trifluoromethyl)benzamide]
EC50 (Rat CB1): > 27000 nM | clearance [1]: 40 mL/min/kg | half-life [1]: 2.2 h | bioavailability [1]: 25% | Ki (rat CB2 [2]): 13 nM | Ki (human CB2 receptors): 77 nM | EC50 (rat CB2 [3]): 0.2 nM

Cn1c(C2(C)CC2)c/c(=N\C(=O)c2cc(C(F)(F)F)ccc2OCC(C)(C)O)n1C[C@H]1CCCO1 [Example 70, 2-(2-hydroxy-2-methylpropoxy)-N-{(3E)-1-methyl-5-(1-methylcyclopropyl)-2-[(2 R)-tetrahydrofuran-2-ylmethyl]-1,2-dihydro-3H-pyrazol-3-ylidene}-5-(trifluoromethyl)benzamide]
EC50 (Rat CB1): > 27000 nM | clearance [1]: 30 mL/min/kg | half-life [1]: 2.3 h | bioavailability [1]: 46% | Ki (rat CB2 [2]): 4.4 nM | Ki (human CB2 receptors): 27 nM | EC50 (rat CB2 [3]): 0.47 nM

CCCCn1/c(=N/C(=O)c2cc(C(F)(F)F)ccc2OCC(C)(C)O)cc(C(C)(C)C)n1C [Example 81, N-[(3E)-2-butyl-5-tert-butyl-1-methyl-1,2-dihydro-3H-pyrazol-3-ylidene]-2-(2-hydroxy-2-methylpropoxy)-5-(trifluoromethyl)benzamide]
EC50 (Rat CB1): 3360 nM | clearance [1]: 3.33 mL/min/kg | half-life [1]: 5 h | bioavailability [1]: 61% | Ki (rat CB2 [2]): 25 nM | Ki (human CB2 receptors): 44 nM | EC50 (rat CB2 [3]): 0.5 nM

Cn1c(C(C)(C)C)c/c(=N\C(=O)c2cc(C(F)(F)F)ccc2OCC(C)(C)O)n1CC1CCC1 [Example 86, N-[(3E)-5-tert-butyl-2-(cyclobutylmethyl)-1-methyl-1,2-dihydro-3H-pyrazol-3-ylidene]-2-(2-hydroxy-2-methylpropoxy)-5-(trifluoromethyl)benzamide]
EC50 (Rat CB1): 4020 nM | clearance [1]: 5 mL/min/kg | half-life [1]: 5.4 h | bioavailability [1]: 50% | Ki (rat CB2 [2]): 4.3 nM | Ki (human CB2 receptors): 8.3 nM | EC50 (rat CB2 [3]): 0.23 nM

Cn1c(C(C)(C)C)c/c(=N\C(=O)c2cc(C(F)(F)F)ccc2OCC(C)(C)O)n1CCC(F)(F)F [Example 87, N-[(3E)-5-tert-butyl-1-methyl-2-(3,3,3-trifluoropropyl)-1,2-dihydro-3H-pyrazol-3-ylidene]-2-(2-hydroxy-2-methylpropoxy)-5-(trifluoromethyl)benzamide]
EC50 (Rat CB1): 3110 nM | clearance [1]: 5 mL/min/kg | half-life [1]: 3.2 h | bioavailability [1]: 64% | Ki (rat CB2 [2]): 7.6 nM | Ki (human CB2 receptors): 18 nM | EC50 (rat CB2 [3]): 0.25 nM

Cn1c(C(C)(C)C)c/c(=N\C(=O)c2cc(Cl)ccc2OCC(C)(C)O)n1C[C@H]1CCCO1 [Example 89, N-{(3E)-5-tert-butyl-1-methyl-2-[(2R)-tetrahydrofuran-2-ylmethyl]-1,2-dihydro-3 H-pyrazol-3-ylidene}-5-chloro-2-(2-hydroxy-2-methylpropoxy)benzamide]
EC50 (Rat CB1): 2320 nM | clearance [1]: 16.7 mL/min/kg | half-life [1]: 1.6 h | bioavailability [1]: 37% | Ki (rat CB2 [2]): 7.6 nM | Ki (human CB2 receptors): 19 nM | EC50 (rat CB2 [3]): 0.61 nM

Cn1c(C(C)(C)C)c/c(=N\C(=O)c2cc(C#N)ccc2OCC(C)(C)O)n1C[C@H]1CCCO1 [Example 90, N-{(3E)-5-tert-butyl-1-methyl-2-[(2R)-tetrahydrofuran-2-ylmethyl]-1,2-dihydro-3 H-pyrazol-3-ylidene}-5-cyano-2-(2-hydroxy-2-methylpropoxy)benzamide]
EC50 (Rat CB1): > 27000 nM | clearance [1]: 41.7 mL/min/kg | half-life [1]: 2.1 h | bioavailability [1]: 28% | Ki (rat CB2 [2]): 11 nM | Ki (human CB2 receptors): 41 nM | EC50 (rat CB2 [3]): 1.8 nM

Cn1c(C(C)(C)C)c/c(=N\C(=O)c2cc(C#N)ccc2OCC(C)(C)O)n1CC1CCCC1 [Example 127, N-[(3E)-5-tert-butyl-2-(cyclopentylmethyl)-1-methyl-1,2-dihydro-3H-pyrazol-3-ylidene]-5-cyano-2-(2-hydroxy-2-methylpropoxy)benzamide]
EC50 (Rat CB1): > 27000 nM | clearance [1]: 46.7 mL/min/kg | half-life [1]: 0.8 h | bioavailability [1]: 60% | Ki (rat CB2 [2]): 12 nM | Ki (human CB2 receptors): 47 nM | EC50 (rat CB2 [3]): 1.78 nM
